The test system of one series is mice. Put plainly: Acute toxicity in mice. Format: in vivo. As to conditions: intraperitoneal dose of 250 mg/kg. From the text: The compound of Example 13 was orally or intraperitoneally administered to mice.
`COc1ccc(N2N=C3c4cc(C)ccc4CCC3CC2=O)cc1` (stereo not shown) [Example 13, 2-(4-Methoxyphenyl)-9-methyl-4,4a,5,6-tetrahydrobenzo[h]cinnolin-3(2H)-one]: the “survival, acute toxicity” value was “All mice survived”.

The series is the same for the next values; noted with them: oral dose of 1000 mg/kg.
As for `COc1ccc(N2N=C3c4cc(C)ccc4CCC3CC2=O)cc1` (stereo not shown) [Example 13, 2-(4-Methoxyphenyl)-9-methyl-4,4a,5,6-tetrahydrobenzo[h]cinnolin-3(2H)-one], the “survival, acute toxicity” value is recorded as “All mice survived”.

In the next series the target is benzodiazepine receptor. The series can be described thus: Displacement of tritiated diazepam from benzodiazepine receptor (crude synaptosomal membranes of rat cerebral cortex). Format: binding, male Wistar rats. As to conditions: tritiated diazepam 2 nM, 4° C., 20 minutes, Tris-HCl pH 7.4. The protocol:
A displacement ability for benzodiazepine receptor is shown as follows:
A specific binding for benzodiazepine receptor was determined according to the methods described in European Journal of Pharmacology, vol. 51, p. 129 (1978) and Life Science, vol. 20, p. 1201 (1977).
In brief, the crude synaptosomal membranes were prepared from the cerebral cortex of 9 to 10 week-old male Wistar rats and were suspended in Tris-HCl buffer (pH 7.4). Various concentrations of test compounds and tritiated diazepam (final concentration: 2 nM) were incubated at 4° C. for 20 minutes. Then the suspension was filtered through Whatman GF/B glass fiber filters. Radioactivity of tritiated diazepam on the filters was measured by liquid scintillation spectrometry. Specific binding was defined as the difference in the amount of radioactivity bound in the absence and presence of 1.0×10^-6 M unlabeled diazepam.
According to the above experimental method, the affinity of the compounds of the present invention is evaluated as an ability to displace tritiated diazepam from the binding site, and is represented as Ki value.
Broadly, the Ki is the dissociation constant of the complex between target and ligand, obtained from inhibition or displacement. Low values mean a stronger hold on the target, high ones a looser hold on the target. For `O=c1cc2c(nn1-c1ccccc1)-c1cc(Cl)ccc1CC2` [Example 2, 9-chloro-2-phenyl-5,6-dihydrobenzo[h]cinnolin-3(2H)-one], the Ki is 190 nM.

For the molecule `Cc1ccc(N2N=C3c4cc(Cl)ccc4CCC3CC2=O)cc1` (stereo not shown) [Example 16, 9-Chloro-2-(4-methylphenyl)-4,4a,5,6-tetrahydrobenzo[h]cinnolin-3(2H)-one], the affinity, expressed as Ki, was 14 nM. Molecule `O=c1cc2c(nn1-c1ccc(Cl)cc1)-c1cc(F)ccc1CC2` [Example 19, 2-(4-Chlorophenyl)-9-fluoro-5,6-dihydrobenzo[h]cinnolin-3(2H)-one] had a Ki of 45 nM. This Ki is about 3.2-fold higher than that of the molecule before. As to `O=C1CC2CCc3ccc(F)cc3C2=NN1c1ccc(Cl)cc1` (stereo not shown) [Example 20, 2-(4-Chlorophenyl)-9-fluoro-4,4a,5,6-tetrahydrobenzo[h]cinnolin-3(2H)-one], the affinity corresponds to a Ki of 34 nM. `COc1ccc2c(c1)C1=NN(c3ccc(C)cc3)C(=O)CC1CC2` (stereo not shown) [Example 14, 9-Methoxy-2-(4-methylphenyl)-4,4a,5,6-tetrahydrobenzo[h]cinnolin-3(2H)-one] gave a Ki of 8.2 nM. With `O=c1cc2c(nn1-c1ccc([N+](=O)[O-])cc1)-c1cc(Cl)ccc1CC2` [Example 18, 9-Chloro-2-(4-nitrophenyl)-5,6-dihydrobenzo[h]cinnolin-3(2H)-one], the Ki turned out to be 90 nM. This Ki is about 11-fold higher than that of the molecule before. Turning to `Cc1ccc2c(c1)C1=NN(c3ccc(Cl)cc3)C(=O)CC1CC2` (stereo not shown) [Example 12, 2-(4-Chlorophenyl)-9-methyl-4,4a,5,6-tetrahydrobenzo[h]cinnolin-3(2H)-one], the Ki turned out to be 26 nM.

`O=c1cc2c(nn1-c1ccccc1)-c1ccccc1CC2` [Example 3, 2-phenyl-5,6-dihydrobenzo[h]cinnolin-3(2H)-one] yielded a Ki of 130 nM. Same read-out and setting: for `O=c1cc2c(nn1-c1ccc(Cl)cc1)-c1cc(Cl)ccc1CC2` [Example 17, 9-Chloro-2-(4-chlorophenyl)-5,6-dihydrobenzo[h]cinnolin-3(2H)-one] the value was 47 nM; for `Cc1ccc(-n2nc3c(cc2=O)CCc2ccc(Cl)cc2-3)cc1` [Example 15, 9-Chloro-2-(4-methylphenyl)-5,6-dihydrobenzo[h]cinnolin-3(2H)-one], 28 nM. For `O=C1CC2CCc3ccc(Cl)cc3C2=NN1c1ccccc1` (stereo not shown) [Example 1, 9-chloro-2-phenyl-4,4a,5,6-tetrahydrobenzo[h]cinnolin-3(2H)-one], affinity was put at a Ki of 120 nM. Turning to `O=c1cc2c(nn1-c1ccccc1)-c1cc(F)ccc1CC2` [Example 30, 9-Fluoro-2-phenyl-5,6-dihydrobenzo[h]cinnolin-3(2H)-one], the affinity corresponds to a Ki of 220 nM. Molecule `Cc1ccc(N2N=C3c4cc(C)ccc4CCC3CC2=O)cc1` (stereo not shown) [Example 11, 9-Methyl-2-(4-methylphenyl)-4,4a,5,6-tetrahydrobenzo[h]cinnolin-3(2H)-one] came in with a Ki of 16 nM.

Molecule `COc1ccc(N2N=C3c4cc(C)ccc4CCC3CC2=O)cc1` (stereo not shown) [Example 13, 2-(4-Methoxyphenyl)-9-methyl-4,4a,5,6-tetrahydrobenzo[h]cinnolin-3(2H)-one] returned a Ki of 6.6 nM. Compared with the last molecule, the Ki is about 2.4-fold lower.

(Values after patent publication US4782057A, “Benzo[h]cinnoline compound, a method of preparing said compound and a pharmaceutical composition” (Yoshitomi Pharmaceutical Industries, Ltd., priority 1984, dated 1988).)
